Measured values from article PMC9394307, “Discovery of Putative Dual Inhibitor of Tubulin and EGFR by Phenotypic Approach on LASSBio-1586 Homologs” (Pharmaceuticals, 2022).
“And” between values parts separate entries of the source, which are not always exact repeats. Equal values may be shown once. Read-outs that look alike come from different tables or passages of the source.

Tests used:
[1] = tested on: MCF-7; assay: MTT cell viability assay, MCF-7; type: cell-based, human; conditions: MTT, 72 h, value (95% CI), read-out: CC50 (µM) (CI) MCF-7
Description: (§1) The cytotoxic activity of compounds 3–13 was determined based on an MTT assay against different human tumor cell lines, using LASSBio-1586 (2), LASSBio-1735 (3), CA-4 (1) and pelitinib as standards (Table 2). To determine the cytotoxic selectivity index, compounds were also evaluated toward human lymphocytes (Table 3).
(§2) The target compounds were tested (0.0001–100 µM) for cytotoxic activity against selected human cancer cell lines, such as HL-60 (acute promyelocytic leukemia), MCF-7 (mammary adenocarcinoma), PC-3 (prostate adenocarcinoma), H1975 (non-small cell lung cancer—EGFR^L858R+T790M), PC-9 (non-small cell lung cancer—EGFR^L858R) H292 (mucoepidermoid pulmonary carcinoma—EGFR wild type), LoVo (colorectal adenocarcinoma—EGFRwild type) and GM16000 (lymphocyte). All the human cancer cell lines were purchased from Cell Bank of Rio de Janeiro—BCRJ. They were cultured in RPMI 1640 medium with 10% (v/v) FBS, 2 mM glutamine, at 37 °C in a humidified incubator containing 5% CO2.
(§3) The cytotoxicity of the compounds was evaluated by the MTT assay. The cell lines were cultured in 96 well plates for 72 h with a density of 0.1 × 10^5 cells/mL to 0.7 × 10^5 cells/mL to adherent cell lines. For lymphocytic lines, a density of 0.3 × 10^6 cells/mL was used. Afterwards they were treated with varying concentrations of the target compounds 2–12 (0.0001–100 µM), CA-4 (1) and pelitinib at 37 °C, in triplicate. The medium was incubated with 20 μL of 5 mg/mL MTT solution for 3 h in a humidified incubator containing 5% CO2 [11].
(§4) The purple-colored formazan crystals formed in the wells were dissolved in DMSO and their absorbance was measured at 595 nm with a microplate reader (SpectraMax M5, Molecular Devices).

[2] = tested on: H1975 cells; assay: Cell cycle analysis by flow cytometry (Guava Muse Cell Cycle Kit); type: cell-based, human; conditions: H1975, 48 h of treatment; CA-4 0.04 µM, LASSBio-1586 2.0 µM, LASSBio-1735 0.08 µM, LASSBio-2070 3.0 µM, LASSBio-2074 1.5 µM; vs DMSO 0.1%
Description: Changes in the cell cycle are important aspect in tumorigenesis. Therefore, the identification of the steps related to inhibition of cell multiplication is an important process during the discovery of new antitumoral drug candidates. […] Flow cytometry was used for cell cycle analysis to estimate the percentages of a cell population in the different phases of the cell cycle. The analysis was performed using the lung cancer cell line H1975 treated with CA-4 (1, 0.04 µM), LASSBio-1586 (2, 2.0 µM), LASSBio-1735 (3, 0.08 µM), LASSBio-2070 (10, 3.0 µM) and LASSBio-2074 (11, 1.5 µM).
(§5) Flow cytometry was applied to help elucidate the mechanism of action of the studied compounds, both to verify the cell cycle phase and to verify the action on EGFR protein kinase.
The anti-tubulin effect was evaluated by seeding H1975, H292 and PC-9 into 6-well plates at a density of 2 × 10^5 per well. […] Cells were harvested and stained according to the protocols of The Guava Muse® Cell Cycle Kit (MCH100106) to quantitatively measure the percentage of cells in the G2/M phases of the cell cycle and the EGFR-RTK Activation Dual Detection Kit (MCH200102) (Luminex®) to measure EGFR phosphorylation in relation to total EGFR expression in the cell population, according to the manufacturer’s instructions for use in test kits using a Guava Muse® Cell Analyzer (Luminex®). Each experiment was performed at least three times independently.

[3] = tested on: LoVo; assay: MTT cell viability assay, LoVo; type: cell-based; conditions: Homo sapiens, 48 h, value (95% CI)
[4] = tested on: PC-3; assay: MTT cell viability assay, PC-3; type: cell-based; conditions: Homo sapiens, PC-3; MTT, 72 h; value (95% CI); read-out: CC50 (µM) (CI) PC-3
Description: as §1, §2, §3, §4

[5] = tested on: SF-295; parameters: method as in PMID 24614859, PMID 30006065, PMID 25564377; conditions: cited from earlier work
[6] = tested on: β-tubulin; parameters: method as in PMID 24614859, PMID 30006065, PMID 25564377; conditions: cited from earlier work
[7] = tested on: HCT-116; parameters: method as in PMID 24614859, PMID 30006065, PMID 25564377; conditions: cited from earlier work
[8] = tested on: HL-60; parameters: method as in PMID 24614859; conditions: cited from earlier work
[9] = tested on: EGFR in PC-9 cell line (EGFR^L858R); assay: Guava Muse EGFR-RTK Activation Dual Detection Kit, flow cytometry; type: cell-based, human; conditions: PC-9, LASSBio-2070 0.03 µM
Description: as §5
The anti-tubulin effect was evaluated by seeding H1975, H292 and PC-9 into 6-well plates at a density of 2 × 10^5 per well. The cells were treated with the selected compounds for 72 h. Cells were harvested and stained according to the protocols of The Guava Muse® Cell Cycle Kit (MCH100106) to quantitatively measure the percentage of cells in the G2/M phases of the cell cycle and the EGFR-RTK Activation Dual Detection Kit (MCH200102) (Luminex®) to measure EGFR phosphorylation in relation to total EGFR expression in the cell population, according to the manufacturer’s instructions for use in test kits using a Guava Muse® Cell Analyzer (Luminex®). Each experiment was performed at least three times independently.

Row | Structure (SMILES) | CC50 ([1]; Homo sapiens, MCF7, 72 h) [µM] | melting point | cell cycle distribution (G0/G1, S, G2/M) [2] | CC50 [3] [µM] | CC50 [4] [µM] | proliferation of SF-295 in the Hollow Fiber Assay [5] | ability to inhibit β-tubulin [6] | proliferation of HCT-116 in the Hollow Fiber Assay [7] | cytotoxic potency against HL-60 compared with LASSBio-1586 (2) [8] | CC50 [1] [µM] | modulation of EGFR activity in a phenotypic model [9]
1 | CCOC(=O)CN(/N=C/c1ccccc1)C(=O)c1cc(OC)c(OC)c(OC)c1 [LASSBio-2074 (11), Ethyl (E)-N-(benzylideneamino)-N-(3,4,5-trimethoxybenzoyl)glycinate] | 0.869 | 91 to 92 °C and 91.67 °C | increased cells in phase G2/M | 2.64 | 1.36 |  |  |  |  |  | 
2 | COc1cc(C(=O)N/N=C/c2ccccc2)cc(OC)c1OC [LASSBio-1586 (2), (E)-N’-benzylidene-3,4,5-trimetoxybenzohydrazide] | 7.53 |  | increased cells in phase G2/M | 1.72 | 1.62 | able to decrease proliferation | confirmed | able to decrease proliferation |  |  | 
3 | COc1cc(C(=O)N(C)/N=C/c2ccccc2)cc(OC)c1OC [LASSBio-1735 (3), (E)-N’-benzylidene-3,4,5-trimethoxy-N-methylbenzohydrazide] | 0.28 | 110 °C and 110.56 °C | increased cells in phase G2/M | 0.479 | 0.201 |  |  |  | cytotoxic potency superior to LASSBio-1586 (2) | 0.276 | 
4 | COc1cc(C(=O)N(Cc2ccccc2)/N=C/c2ccccc2)cc(OC)c1OC [LASSBio-2070 (10), (E)-N-benzyl-N’-benzylidene-3,4,5-trimethoxybenzohydrazide] | 1.7 | 130 to 131 °C and 130.12 °C | increased cells in phase G2/M | 2.12 | 0.361 |  |  |  |  |  | inhibiting the phosphorylation of EGFR
